Data: patent US20180028477A1, “TREATMENT OF CARDIAC REMODELING AND OTHER HEART CONDITIONS” (C & C BIOPHARMA, LLC, priority 2013, published 2018)
Several values for one entry are separate records, joined by “and”; a condition that tells them apart may be missing. Equal entries are not always repeated.

Test: Serum chemistries in mice subjected to TAC and treated with 8MI (Example 6)
Format: in vivo
Details: for ALT / BUN / Calcium / Creatinine / Glucose / Total Protein: serum, TAC
Experimental: The effects of 8MI on hypertrophy in a model of moderate pressure overload were tested further (FIGS. 5A-5E). 8MI or its vehicle (DMSO) was administered over a range of concentrations immediately prior to and for 21 days following transverse aortic coarctation (TAC). All experiments were performed on 2-3 month old wild type C57/BL/6 mice. Cardiac hypertrophy was induced by TAC as described in Wei et. al. 2008. Pressure gradients induced by TAC were evaluated postoperatively by pulsed-wave Doppler echocardiography to confirm equivalent gradients in all animals (45±5 mmHg). 8MI was delivered via tail vein injection one day prior to surgical intervention and then daily for 21 days. Blood samples were obtained at sacrifice on day 21 after surgery, and serum was frozen at […] until analysis
Prior to sacrifice, serum was extracted from the blood of the mice treated as described in Example 4.

[1] = 8MI 5 mg/kg, individual mice #7-9
[2] = 8MI 20 mg/kg, individual mice #10-12
[3] = 8MI 40 mg/kg, individual mice #13-15

Structure (SMILES): Nc1ccccc1NC(=O)CCCCCC(=O)Nc1cccc(Br)c1 [8MI]
- tolerability from serum chemistries (TAC mice, 5-40 mg/kg, 21 days): well tolerated
- mice with significant renal and/or hepatic dysfunction induced by TAC (mice receiving any dose of 8MI (control: 2 out of 3)): 1 out of 9
- ALT [1]: 47 U/L and 53 U/L and 58 U/L
- BUN [1]: 26 mg/dL and 21 mg/dL and 25 mg/dL
- Calcium [1]: 11.7 mg/dL and 9.7 mg/dL and 11 mg/dL
- Creatinine [1]: 0.2 mg/dL
- Glucose [1]: 375 mg/dL and 158 mg/dL and 294 mg/dL
- Total Protein [1]: 5.6 g/dL and 5.8 g/dL and 5.4 g/dL
- ALT [2]: 51 U/L and 73 U/L and 57 U/L
- BUN [2]: 21 mg/dL and 19 mg/dL and 28 mg/dL
- Calcium [2]: 9.9 mg/dL and 10.3 mg/dL and 11.1 mg/dL
- Creatinine [2]: 0.2 mg/dL
- Glucose [2]: 224 mg/dL and 177 mg/dL and 326 mg/dL
- Total Protein [2]: 5.3 g/dL and 5.6 g/dL and 6.0 g/dL
- ALT [3]: 56 U/L and 308 U/L and 60 U/L
- BUN [3]: 21 mg/dL and 26 mg/dL and 23 mg/dL
- Calcium [3]: 10.6 mg/dL and 8.7 mg/dL and 10.1 mg/dL
- Creatinine [3]: 0.3 mg/dL (2×) and 0.6 mg/dL
- Glucose [3]: 455 mg/dL and 140 mg/dL and 252 mg/dL
- Total Protein [3]: 6.2 g/dL and 5.5 g/dL and 5.7 g/dL
